According to article PMC5474940 (Biochemistry, 2017):

Tested on: AcOSα-PaFSα
Assay type: biochemical, Aspergillus clavatus
Conditions: read-out: AcOSα-PaFSα; labelled compound; 25 mM HEPES pH 8.0, 200 mM NaCl, 5 mM MgCl2, 30 °C; cyclase domain

SMILES: CC(C)=CCC/C(C)=C/CC/C(C)=C/CC/C(C)=C/COP(=O)(O)OP(=O)(O)O [GGPP]
- Km: 0.038 ± 0.01 µM
